38 compounds from the Kinase Knowledgebase extract (Sharma et al. 2016) can be followed below.

Assay [1] has as its target MAPK14 (UniProt Q16539). In words: MAPK14 Kinase Inhibition.
The target of assay [2] is MAPK14 (UniProt Q16539). The assay is described as follows: TNF Inhibition (In Vivo).
Assay [3] has as its target MAPK14 (UniProt Q16539). The assay is described as follows: MAPK14 Kinase Binding Inhibition.

Chain of MAPK14 (Q16539 whole entry, looked up): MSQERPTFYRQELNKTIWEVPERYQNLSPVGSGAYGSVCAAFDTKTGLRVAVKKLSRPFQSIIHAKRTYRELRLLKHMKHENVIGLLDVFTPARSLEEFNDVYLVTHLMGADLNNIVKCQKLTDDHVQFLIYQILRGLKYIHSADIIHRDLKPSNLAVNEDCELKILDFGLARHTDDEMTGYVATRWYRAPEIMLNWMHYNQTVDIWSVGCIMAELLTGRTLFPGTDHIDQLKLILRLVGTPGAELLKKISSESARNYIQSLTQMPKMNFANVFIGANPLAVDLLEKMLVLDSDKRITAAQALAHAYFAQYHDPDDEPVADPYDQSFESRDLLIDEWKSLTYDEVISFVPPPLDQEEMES

One may read the IC50 as the concentration that gives 50% inhibition. Read a low IC50 as inhibition by little substance. Compound `COc1ccccc1Nc1nccc(-c2c(-c3ccc(F)cc3)ncn2C2CCNCC2)n1` registered an IC50 in assay [1] of less than 50 µM.

As to `CSc1ccc(-c2ncn(C3CCNCC3)c2-c2ccnc(Nc3ccccc3)n2)cc1`, in assay [1], the half-maximal inhibitory concentration (IC50) is less than 50 µM. The same measure, in the same setting: under `COc1ccc(Nc2nccc(-c3c(-c4ccc(F)cc4)ncn3C3CCNCC3)n2)cc1` stands less than 50 µM. In assay [2], `Fc1ccc(-c2ncn(C3CCNCC3)c2-c2ccnc(NCCCn3ccnc3)n2)cc1` came in with an inhibition of less than 50 µM. `CC1(C)CC(n2cnc(-c3ccc(F)cc3)c2-c2ccnc(Nc3ccccc3)n2)CC(C)(C)N1` gave an inhibition in assay [3] of less than 50 µM. Same read-out and setting: under `NCCNc1nccc(-c2c(-c3ccc(F)cc3)ncn2C2CCNCC2)n1` stands 50 µM. With `O=C1CCC(n2cnc(-c3ccc(F)cc3)c2-c2ccnc(Nc3ccccc3)n2)CC1`, the inhibition in assay [2] and in assay [3] was less than 50 µM each time.

`Oc1ccc(Nc2nccc(-c3c(-c4ccc(F)cc4)ncn3C3CCNCC3)n2)cc1`: the IC50 in assay [1] was less than 50 µM.

On to `O[C@H]1CC[C@H](n2cnc(-c3ccc(F)cc3)c2-c2ccnc(Nc3ccccc3)n2)CC1`, for which the inhibition in assay [3] is less than 50 µM. Consider `CCOC(=O)N1CCC(n2cnc(-c3ccc(F)cc3)c2-c2ccnc(Nc3ccc(OCc4ccccc4)cc3)n2)CC1`, for which the IC50 in assay [1] is less than 50 µM. As to `CN1CCC(n2cnc(-c3ccc(F)cc3)c2-c2ccnc(NC3CCNCC3)n2)CC1`, the inhibition in assay [3] was less than 50 µM. Consider `CCOC(=O)N1CCC(n2cnc(-c3ccc(F)cc3)c2-c2ccnc(Nc3cccc(OCc4ccccc4)c3)n2)CC1`, for which, in assay [1], the IC50 was less than 50 µM.

For `CN1CCC(n2cnc(-c3ccc(F)cc3)c2-c2ccnc(NCc3cccc4ccccc34)n2)CC1`, the inhibition in assay [2] and in assay [3] was less than 50 µM throughout. With `CC1(C)CC(n2cnc(-c3ccc(F)cc3)c2-c2ccnc(NCCO)n2)CC(C)(C)N1`, the inhibition in assay [2] and in assay [3] was less than 50 µM in each case. On to `Fc1ccc(Nc2nccc(-c3c(-c4ccc(F)cc4)ncn3C3CCNCC3)n2)cc1`, for which the IC50 in assay [1] was less than 50 µM. The compound further yielded an inhibition in assay [2] of less than 50 µM. `Fc1ccc(cc1)c2ncn(C3CCNCC3)c2c4ccnc(NCCCN5=CNC=C5)n4` gave an inhibition in assay [3] of less than 50 µM.

In assay [3], `CN1CCC(n2cnc(-c3ccc(F)cc3)c2-c2ccnc(NCCc3c[nH]c4ccc(Cl)cc34)n2)CC1` returned an inhibition of less than 50 µM. Regarding `CN1CCC(n2cnc(-c3ccc(F)cc3)c2-c2ccnc(NCc3cccc(Cl)c3)n2)CC1`, the inhibition in assay [2] and in assay [3] was less than 50 µM in each case. `C[S+]([O-])c1ccc(-c2ncn(C3CCNCC3)c2-c2ccnc(Nc3ccccc3)n2)cc1` (stereo not given) yielded an IC50 in assay [1] of less than 50 µM. With `CN1CCC(n2cnc(-c3ccc(F)cc3)c2-c2ccnc(Nc3ccccc3)n2)CC1`, the inhibition in assay [2] and in assay [3] was less than 50 µM throughout. Compound `CN1CCC(n2cnc(-c3ccc(F)cc3)c2-c2ccnc(NC3CCSCC3)n2)CC1` had an inhibition in assay [3] of less than 50 µM.

In the case of `CN1CCC(n2cnc(-c3ccc(F)cc3)c2-c2ccnc(NC3CCN(Cc4ccccc4)CC3)n2)CC1`, in assay [3], the inhibition was less than 50 µM. Compound `Fc1ccc(-c2ncn(C3CCNCC3)c2-c2ccnc(Nc3cccc(F)c3)n2)cc1` had an IC50 in assay [1] of less than 50 µM. In assay [2], the inhibition is less than 50 µM.

`Fc1ccc(-c2ncn(C3CCNCC3)c2-c2ccnc(Nc3ccc(F)c(F)c3)n2)cc1` yielded an IC50 in assay [1] of less than 50 µM. As for `COc1cccc(Nc2nccc(-c3c(-c4ccc(F)cc4)ncn3C3CCNCC3)n2)c1`, the IC50 in assay [1] was less than 50 µM. On the same count and under the same terms, with `Oc1cccc(Nc2nccc(-c3c(-c4ccc(F)cc4)ncn3C3CCNCC3)n2)c1` the figure was less than 50 µM.

With `Fc1ccc(-c2ncn(C3CCNCC3)c2-c2ccnc(Nc3ccccc3F)n2)cc1`, in assay [1], the IC50 is less than 50 µM. The inhibition in assay [2] is less than 50 µM. For the compound `Fc1ccc(-c2ncn(C3CCNCC3)c2-c2ccnc(Nc3cccc(C(F)(F)F)c3)n2)cc1`, the half-inhibitory concentration (IC50) in assay [1] is less than 50 µM.

As to `Fc1ccc(-c2ncn(C3CCNCC3)c2-c2ccnc(Nc3ccccc3)c2)cc1`, the inhibition in assay [2] and in assay [3] was less than 50 µM each time. `CN1CCC(n2cnc(-c3ccc(F)cc3)c2-c2ccnc(NCc3ccc4c(c3)OCO4)n2)CC1` returned an inhibition in assay [3] of less than 50 µM. On to `CN1CCC(n2cnc(-c3ccc(F)cc3)c2-c2ccnc(NCCO)n2)CC1`, for which the inhibition in assay [2] and in assay [3] was less than 50 µM each time. Consider `CN1CCC(n2cnc(-c3ccc(F)cc3)c2-c2ccnc(NC3CC(C)(C)NC(C)(C)C3)n2)CC1`, for which the inhibition in assay [3] is less than 50 µM. Take `CN1CCC(n2cnc(-c3ccc(F)cc3)c2-c2ccnc(NCc3ccccc3)n2)CC1`: the inhibition in assay [2] and in assay [3] was less than 50 µM throughout. Compound `CN1CCC(n2cnc(-c3ccc(F)cc3)c2-c2ccnc(Nc3cccc(Br)c3)n2)CC1` registered an inhibition in assay [3] of less than 50 µM. `CN1CCC(n2cnc(-c3ccc(F)cc3)c2-c2ccnc(NCCCN3CCOCC3)n2)CC1` returned an inhibition in assay [3] of less than 50 µM. On the same count and under the same terms, with `CCOCCCNc1nccc(-c2c(-c3ccc(F)cc3)ncn2C2CCNCC2)n1` the figure was less than 50 µM. In the case of `Fc1ccc(-c2ncn(C3CCNCC3)c2-c2ccnc(Nc3ccccc3)n2)cc1`, the inhibition in assay [2] and in assay [3] was less than 50 µM throughout. For `CCOC(=O)N1CCC(Nc2nccc(-c3c(-c4ccc(F)cc4)ncn3C3CCN(C)CC3)n2)CC1`, the inhibition in assay [3] was less than 50 µM.
